Results: patent US20070212403A1, “Method for Selecting Cationic or Anionic Liposomes for Treatment of a Mucosa Membrane, and Kit Comprising the Same” (Yissum Research Development Company of the Hebrew …, priority 2003, published 2007)

Tests used:
[1] = tested on: epithelium of the rat intestine; experiment: Tissue uptake of free and liposomal SOD and TMN in intestinal sacs; settings: for tissue uptake: 60 min incubation, mean±SEM
Description: The abdomens of anesthetized healthy Sabra rats were cut open and 10 cm long segments of the distal colon were excised, separated and rinsed with PBS. Colon sacs (5 cm each) were prepared by tying one end with 3/0 silk suture, filling with 0.4 ml of free or liposomal suspension of either TMN or FITC-SOD (diluted×10 in PBS), and tying at the other end.
The sacs were incubated in 15 ml of PBS, containing 10 mM glucose, at 37° C., in a glass vial in a shaking bath for 60 min. At the end of the incubation, the sacs were cut open, rinsed three times by PBS immersion and weighed. For detection of FITC-SOD attachment and uptake (subsequently referred to generally as uptake, as internalization and attachment cannot be discriminated using these methods), the colon sac preparations were homogenized (Polytron, Kinematicas, Berlin, Germany) in a solution containing isopropanol: pH 9.0 borate buffer 9:1. One milliliter of the homogenate was centrifuged at 14,000 rpm for 15 min. The level of fluorescence in the supernatant was then measured by a spectrofluorimeter (Perkin-Elmer LS-SB, Bucks, England) at λ excitation=495, λ emission=525. For the detection of TMN uptake, tissues were homogenized in water containing 1% v/v TritonX-100. One ml of the homogenate was centrifuged (5000 rpm, 15 min), and TMN concentration was measured by EPR.

jejunal mucosa = experiment: Local oxidative stress (hypoxanthine/xanthine oxidase-FeSO4) in perfused rat jejunum; format: in vivo; settings: 20 min perfusion pretreatment before hydroxyl radical induction; for tissue LDH activity: mean±SEM
Description: Hydroxyl radicals were induced in the jejunum (15 cm long segment) of each of four group of anaesthetized Sabra rats, by the perfusion of a mixture of 6 mM hypoxanthine, 3 U/ml of xanthine oxidase, 10 mM FeSO4 and 1 mM EDTA in saline over 30 min, using a closed rat jejunal loop system at a rate of 1 ml/min, as described elsewhere [Kohen R. et al. J. Biol Chem. 1992, 267:21349-21354].
In separate studies two groups of rats (4 rats in each group) were perfused with either 35 U/ml SOD or liposomal SOD over 20 min. A 10 min saline rinse was then performed, followed by the hydroxyl radicals induction as described above. Similarly, the other two groups (4 rats each) were perfused with 5 mM free TMN or liposomal TMN over 20 min. A 10 min saline rinse was then performed, followed by hydroxyl radicals induction as described above. Control studies included (a) a group of rats, perfused with normal saline over 30 minutes prior to the oxidative damage induction, (b) a group of rats, perfused with normal saline for 20 min (naive control). At the end of each study, the perfused jejunal segment was separated from the anaesthetized animal, the mucosal epithelial layer delicately scraped and homogenized in 5 ml of distilled water on ice.
Assuming that tissue insult would cause leakage of enterocyte contents, the induced damage was characterized by measuring tissue (a) activity of lactate dehydrogenase (LDH) at 340 nm with pyruvic acid as the substrate and NADH as the electron donor. For this purpose, 1 ml of the tissue homogenate was centrifuged at 5000 g for 15 min. LDH activity was measured in the supernatant; (b) potassium levels by atomic absorption. All measurements were repeated four times, and the results were normalized to tissue dry weight.

[2] = tested on: healthy colonic epithelium of the rat; experiment: Tissue staining by charged dyes, healthy colonic sacs; settings: 15 min incubation, mean±SEM
Description: Colonic sacs, of either healthy or inflamed rat colonic tissues, were prepared as described above and filled, in separate studies, with 0.5 ml of aqueous solutions (containing 2% v/v DMSO) of either of the cationic dye, hematoxylin (1 mg/ml), or the anionic dye, eosin B (0.5 mg/ml). The sacs were incubated in 15 ml of PBS containing glucose (10 mM), at 37° C. (glass vial) for 15 min in a shaking bath, after which the sacs were cut open, measured for their surface area (ruler) and rinsed (PBS) three times. The tissues incubated with eosin B were then homogenized in 3 ml of absolute methanol, while the tissues incubated with hematoxylin were homogenized in 3 ml of absolute ethanol. The concentration of dyes in the tissue homogenates was measured spectrophotometrically (Uvikon 933, Kontron Switzerland), at 292 nm (hematoxylin) or 523 nm (eosin B).

[3] = tested on: inflamed colonic epithelium of the rat; experiment: Tissue staining by charged dyes, inflamed colonic sacs; settings: 15 min incubation, mean±SEM
Description: Twenty-four hours prior to colitis induction the rats were deprived of food, but allowed free access to water. The water contained 10 mg/l of the laxatives sennoside-A and sennoside-B (X-Prep Liquid®, Rafa Pharmaceuticals, Israel) and sucrose (200 g/l). With the rats under light ether inhalation anesthesia, colitis was induced by intracolonic administration of 30 mg of dinitrobenzensulfonic acid (DNBS) dissolved in 1 ml of an ethanolic solution 25% (v/v). The solution was instilled slowly over 20 s via a flexible, perforated foley catheter, which was then immediately removed, leaving the rats in an upside down position for another 40 s. Colonic sacs, of either healthy or inflamed rat colonic tissues, were prepared as described above and filled, in separate studies, with 0.5 ml of aqueous solutions (containing 2% v/v DMSO) of either of the cationic dye, hematoxylin (1 mg/ml), or the anionic dye, eosin B (0.5 mg/ml). The sacs were incubated in 15 ml of PBS containing glucose (10 mM), at 37° C. (glass vial) for 15 min in a shaking bath, after which the sacs were cut open, measured for their surface area (ruler) and rinsed (PBS) three times. […] The concentration of dyes in the tissue homogenates was measured spectrophotometrically (Uvikon 933, Kontron Switzerland), at 292 nm (hematoxylin) or 523 nm (eosin B).

tumor recurrence = settings: animal model, peritoneal wound site; cited from earlier work

| Compound | tissue uptake relative to free SOD uptake [1] | tissue uptake [1] | tissue potassium levels (jejunal mucosa) | tissue LDH activity (jejunal mucosa) | dye attachment to healthy colonic epithelium [2] | dye attachment to inflamed colonic epithelium [3] | reduction of tumor recurrence (tumor recurrence) |
| --- | --- | --- | --- | --- | --- | --- | --- |
| CC1(C)CC(N)CC(C)(C)N1[O] [free TMN, 4-amino tempol] | 3 fold | 6.8±1.1 % uptake of initial amount | 0.33±0.08 μmol/mg tissue | 9.0±1.3 U/mg tissue |  |  |  |
| O=C(O)c1ccccc1-c1c2cc([N+](=O)[O-])c(=O)c(Br)c-2oc2c(Br)c(O)c([N+](=O)[O-])cc12 [eosin B] |  |  |  |  | 0.12±0.011 μg/cm^2 | 0.19±0.012 μg/cm^2 |  |
| Oc1cc2c(cc1O)[C@@H]1c3ccc(O)c(O)c3OC[C@]1(O)C2 [hematoxylin] |  |  |  |  | 26.2±2.8 μg/cm^2 | 19.6±1.36 μg/cm^2 |  |
| catalase |  |  |  |  |  |  | 40% |
| superoxide dismutase [native SOD] |  | 2.5±1.6 % uptake of initial amount | 0.37±0.03 μmol/mg tissue | 11.8±0.3 U/mg tissue |  |  | 50% |
